Test results as given in patent US20240300943A1, “NOVEL SALTS OF HETEROCYCLIC COMPOUND AS PROTEIN KINASE INHIBITOR AND USES THEREOF” (HK INNO.N CORPORATION, priority 2021, published 2024).

Experiments:
JAK1 = JAK1 (Homo sapiens, UniProt P23458); assay: ADP-Glo JAK1 kinase assay; type: biochemical
Protocol: 10 mM of (S)—N-(4-(1-(2-cyanoacetyl)-3-methyl-1,2,3,6-tetrahydropyridin-4-yl)-1H-pyrrolo[2,3-b]pyridin-6-yl)cyclopropanecarboxamide (hereinafter, referred to as Compound 1), which is the heterocyclic compound represented by formula II obtained according to Preparation Example 1, was diluted in DMSO to prepare samples at five concentrations (1,000 nM, 200 nM, 40 nM, 8 nM, and […]). 10 mM of ATP and 10 mg/mL of insulin receptor substrate (IRS) were diluted at 1/40 and 1/50, respectively, in 1× kinase buffer. In addition, 222 ng/μL of JAK1 enzyme was diluted at ⅛ in 1× kinase buffer to make a preparation. 1 μL of ATP, 1 μL of IRS, and 1 μL of Compound 1 prepared as above were mixed, after which 2 μL of JAK1 enzyme was finally added and reacted at 30° C. for 40 minutes. At this time, a tube without JAK1 enzyme was prepared for a blank and a tube without Compound 1 was prepared as a positive control group together (a final concentration of samples was 200 nM, 40 nM, 8 nM, 1.6 nM, and 0.32 nM).
(§1) Then, 5 μL of ADP-glo was added to each tube and reacted at 30° C. for 40 minutes, after which 10 μL of kinase detection reagent was added thereto and reacted at room temperature for 15 minutes. After 18 μL of the reactant was transferred to a 384 well plate, luminescence was measured using a plate reader.

JAK2 = JAK2 (Homo sapiens, UniProt O60674); assay: ADP-Glo JAK2 kinase assay; type: biochemical; details: read-out: IC50, In vitro enzyme JAK2
Protocol: 10 mM of Compound 1 was diluted in DMSO to prepare samples at four concentrations (5,000 nM, 500 nM, 50 nM and 5 nM). 10 mM of ATP was diluted at 1/40 in 1× kinase buffer to make a preparation. 1 mg/mL of IGFIRtide was used as a stock solution. 100 ng/μL of JAK2 enzyme was diluted at 1/20 in 1× kinase buffer to make a preparation. 1 μL of ATP, 1 μL of IGFIRtide, and 1 μL of Compound 1 prepared as above were mixed, after which 2 μL of JAK2 enzyme was finally added and reacted at 30° C. for 40 minutes. At this time, a tube without JAK2 enzyme was prepared as a blank and a tube without Compound 1 was prepared as a positive control group together (a final concentration of samples was 1,000 nM, 100 nM, 10 nM, and 1 nM).
as §1

JAK1, Tyk2 = assay: In vitro cell assay, JAK1, Tyk2 (U2OS cells, IFN-alphaB2); type: cell-based; details: Homo sapiens, read-out: IC50, Cell Biology JAK1, Tyk2
Protocol: Furthermore, there is a literature in which U20S cells are associated with JAK1/TYK2 signaling activity and phosphorylation of STAT1 by IFN-alphaB2 and IFN-γ. Accordingly, U2OS cells were prepared for the evaluation of JAK1 and TYK2 as a cell line which strongly expresses STAT1 signals.
The test material was dissolved in DMSO, prepared at 10 mM, divided by 20 μL each, and stored at −20° C.
• EPO: 2000 U/0.5 mL of stock was divided by 50 μL each and stored under refrigeration. • IL-2: 200 μg/ml of stock was prepared, divided by 5 μL each, and stored, and then treated at 2 ng/ml. (IL-2 1 μg/ml=13000 U/ml) • IFN-alphaB2: […] of stock was diluted and used, and then treated to reach 30000 U/ml.
• UT-7/EPO cell assay: MEM-alpha (Gibco, cat #12561-056) was prepared to contain 5% FBS and 1% P/S before use. • NK-92 cell assay: A preparation was made to contain HBSS, 1% FBS and 1% P/S before use. • U2OS cell assay: A preparation was made to contain HBSS, 1% FBS and 1% P/S before use.
The cultured cells were centrifuged (1,000 rpm, 5 minutes) and washed with PBS. The size of cell lines and appropriate reaction concentration thereof were set and the cell lines were seeded in a 96-well plate at 1×10^5 to 10^6 cells/well (50 μL/well). The test material was prepared 4× of the concentration to be treated, and prepared at five to six concentrations by serial dilution of ⅕ each. […]

[1] = Hygroscopicity evaluation; type: physicochemical; details: for Individual related material: in %
From the text: Samples were placed in a glass desiccator in which relative humidity was adjusted to 33%, 53%, 75%, and 93%, and then stored for two and four weeks to be evaluated.

JAK1, sequence (P23458 whole entry, species assumed): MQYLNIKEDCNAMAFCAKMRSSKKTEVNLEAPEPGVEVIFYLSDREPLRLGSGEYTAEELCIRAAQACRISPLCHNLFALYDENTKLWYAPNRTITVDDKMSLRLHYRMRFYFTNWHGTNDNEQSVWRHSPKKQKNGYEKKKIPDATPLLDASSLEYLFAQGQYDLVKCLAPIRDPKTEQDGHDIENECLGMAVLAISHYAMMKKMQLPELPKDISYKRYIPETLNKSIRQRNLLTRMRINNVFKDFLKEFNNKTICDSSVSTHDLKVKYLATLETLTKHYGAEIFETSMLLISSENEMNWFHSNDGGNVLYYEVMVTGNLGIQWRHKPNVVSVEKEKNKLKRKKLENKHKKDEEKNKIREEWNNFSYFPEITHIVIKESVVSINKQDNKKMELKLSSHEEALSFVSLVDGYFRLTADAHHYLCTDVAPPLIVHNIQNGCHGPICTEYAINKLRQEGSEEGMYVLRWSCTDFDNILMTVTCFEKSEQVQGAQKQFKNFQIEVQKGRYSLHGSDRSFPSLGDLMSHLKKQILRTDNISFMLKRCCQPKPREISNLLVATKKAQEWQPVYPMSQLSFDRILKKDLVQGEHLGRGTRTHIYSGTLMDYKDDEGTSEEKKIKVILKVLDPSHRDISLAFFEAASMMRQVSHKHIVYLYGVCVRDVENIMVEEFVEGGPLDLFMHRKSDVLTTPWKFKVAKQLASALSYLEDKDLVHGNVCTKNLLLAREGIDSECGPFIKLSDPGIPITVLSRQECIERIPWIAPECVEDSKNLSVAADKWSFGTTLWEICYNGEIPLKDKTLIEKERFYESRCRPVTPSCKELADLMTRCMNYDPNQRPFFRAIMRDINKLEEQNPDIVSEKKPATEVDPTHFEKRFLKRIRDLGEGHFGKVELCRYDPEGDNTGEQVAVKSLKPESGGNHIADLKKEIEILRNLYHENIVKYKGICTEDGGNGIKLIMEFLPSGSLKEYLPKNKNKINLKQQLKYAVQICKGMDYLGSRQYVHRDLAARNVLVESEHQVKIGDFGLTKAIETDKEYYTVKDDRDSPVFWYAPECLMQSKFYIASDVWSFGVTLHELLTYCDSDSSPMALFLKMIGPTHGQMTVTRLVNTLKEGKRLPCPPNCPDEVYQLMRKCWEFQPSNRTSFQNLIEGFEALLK
JAK2, sequence (O60674 whole entry, species assumed): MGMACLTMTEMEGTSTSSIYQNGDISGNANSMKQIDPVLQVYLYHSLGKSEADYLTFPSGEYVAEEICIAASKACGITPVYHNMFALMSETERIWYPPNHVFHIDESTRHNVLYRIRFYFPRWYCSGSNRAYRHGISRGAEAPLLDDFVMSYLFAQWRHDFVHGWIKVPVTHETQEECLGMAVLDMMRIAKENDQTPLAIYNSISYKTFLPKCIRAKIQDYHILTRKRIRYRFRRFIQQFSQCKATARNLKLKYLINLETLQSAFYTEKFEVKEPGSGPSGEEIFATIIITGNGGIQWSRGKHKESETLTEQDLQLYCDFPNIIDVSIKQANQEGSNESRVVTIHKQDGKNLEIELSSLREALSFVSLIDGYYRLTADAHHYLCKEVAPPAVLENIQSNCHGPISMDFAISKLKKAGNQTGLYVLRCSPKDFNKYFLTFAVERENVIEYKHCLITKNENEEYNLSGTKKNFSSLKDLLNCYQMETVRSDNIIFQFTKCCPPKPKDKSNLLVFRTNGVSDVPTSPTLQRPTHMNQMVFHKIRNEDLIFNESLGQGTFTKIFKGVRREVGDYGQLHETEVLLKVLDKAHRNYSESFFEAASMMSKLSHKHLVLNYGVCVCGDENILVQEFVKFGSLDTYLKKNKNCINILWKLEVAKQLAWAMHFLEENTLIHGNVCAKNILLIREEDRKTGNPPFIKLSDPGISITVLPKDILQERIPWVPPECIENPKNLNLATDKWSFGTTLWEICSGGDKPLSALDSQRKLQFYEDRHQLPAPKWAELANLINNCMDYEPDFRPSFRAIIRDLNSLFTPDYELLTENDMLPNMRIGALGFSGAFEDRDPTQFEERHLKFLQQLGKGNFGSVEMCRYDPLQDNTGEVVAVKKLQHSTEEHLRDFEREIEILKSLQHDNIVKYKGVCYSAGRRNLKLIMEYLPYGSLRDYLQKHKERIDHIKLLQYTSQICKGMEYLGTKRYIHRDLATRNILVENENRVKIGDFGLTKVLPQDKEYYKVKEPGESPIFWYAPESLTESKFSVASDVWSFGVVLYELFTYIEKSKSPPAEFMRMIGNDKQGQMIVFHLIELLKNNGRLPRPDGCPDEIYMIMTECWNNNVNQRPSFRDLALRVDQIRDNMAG

**Q.** With `C[C@@H]1CN(C(=O)CC#N)CC=C1c1cc(NC(=O)C2CC2)nc2[nH]ccc12` [Compound 1, (S)—N-(4-(1-(2-cyanoacetyl)-3-methyl-1,2,3,6-tetrahydropyridin-4-yl)-1H-pyrrolo[2,3-b]pyridin-6-yl)cyclopropanecarboxamide] as the compound, how does the IC50 (JAK1; ADP-Glo kinase assay, read-out: IC50, In vitro enzyme JAK1) read?
**A.** 3.8 nM

**Q.** And the JAK1 inhibitory activity (JAK1; summary of Experimental Examples 1 to 3)?
**A.** very excellent JAK1 inhibitory activity

**Q.** And the IC50 (JAK2)?
**A.** 68 nM

**Q.** What about the IC50 (JAK1, Tyk2) of the same compound?
**A.** 27 nM

**Q.** With `C[C@@H]1CN(C(=O)CC#N)CC=C1c1cc(NC(=O)C2CC2)nc2[nH]ccc12` [Example 3, (S)—N-(4-(1-(2-cyanoacetyl)-3-methyl-1,2,3,6-tetrahydropyridin-4-yl)-1H-pyrrolo[2,3-b]pyridin-6-yl)cyclopropanecarboxamide] as the compound, how does the Total related material ([1]; Initial) read?
**A.** 0.37%

**Q.** What about the Water ([1]; Initial) of the same compound?
**A.** 0.61%

**Q.** And the Individual related material ([1]; Initial)?
**A.** 0.07

**Q.** And the Total related material ([1]; relative humidity 33%, 2 W)?
**A.** 0.43%

**Q.** And the Water ([1]; relative humidity 33%, 2 W)?
**A.** 0.41%

**Q.** What about the Individual related material ([1]; relative humidity 33%, 2 W) of the same compound?
**A.** 0.07

**Q.** What about the Total related material ([1]; relative humidity 33%, 4 W) of the same compound?
**A.** 0.41%

**Q.** And the Water ([1]; relative humidity 33%, 4 W)?
**A.** 0.53%

**Q.** And the Individual related material ([1]; relative humidity 33%, 4 W)?
**A.** 0.08

**Q.** What about the Total related material ([1]; relative humidity 53%, 2 W) of the same compound?
**A.** 0.43%

**Q.** What about the Water ([1]; relative humidity 53%, 2 W) of the same compound?
**A.** 0.53%

**Q.** And the Individual related material ([1]; relative humidity 53%, 2 W)?
**A.** 0.08

**Q.** And the Total related material ([1]; relative humidity 53%, 4 W)?
**A.** 0.35%

**Q.** What about the Water ([1]; relative humidity 53%, 4 W) of the same compound?
**A.** 0.66%

**Q.** And the Individual related material ([1]; relative humidity 53%, 4 W)?
**A.** 0.07

**Q.** What about the Total related material ([1]; relative humidity 75%, 2 W) of the same compound?
**A.** 0.44%

**Q.** And the Water ([1]; relative humidity 75%, 2 W)?
**A.** 0.60%

**Q.** What about the Individual related material ([1]; relative humidity 75%, 2 W) of the same compound?
**A.** 0.08

**Q.** What about the Total related material ([1]; relative humidity 75%, 4 W) of the same compound?
**A.** 0.39%

**Q.** And the Water ([1]; relative humidity 75%, 4 W)?
**A.** 0.81%

**Q.** And the Individual related material ([1]; relative humidity 75%, 4 W)?
**A.** 0.07

**Q.** And the Total related material ([1]; relative humidity 93%, 2 W)?
**A.** 0.41%

**Q.** And the Water ([1]; relative humidity 93%, 2 W)?
**A.** 1.17%

**Q.** What about the Individual related material ([1]; relative humidity 93%, 2 W) of the same compound?
**A.** 0.08

**Q.** And the Total related material ([1]; relative humidity 93%, 4 W)?
**A.** 0.33%

**Q.** What about the Water ([1]; relative humidity 93%, 4 W) of the same compound?
**A.** 0.97%

**Q.** What about the Individual related material ([1]; relative humidity 93%, 4 W) of the same compound?
**A.** 0.07
